{"source": "patent US20150284812A1", "about": "(priority 2012, published 2015)", "key": {"CYP3A7-DsRed [1]": {"tested_on": "CYP3A7-DsRed", "test": "Liver injury test using CYP3A4+/7R MAC-introduced mice, observation under fluorescence microscope", "assay_type": "in vivo, mouse", "conditions": "8 weeks old mice; 5% carbon tetrachloride dissolved in DMSO; observed for 3 days", "text": "The CYP3A4+/7MAC-introduced mice produced in Example 5 strongly expressed DsRed for several weeks after the birth. […] In the CYP3A4+/7R MAC-introduced mice, EGFP functions as a marker showing introduction of MAC in the cells."}, "CYP3A7-DsRed [2]": {"tested_on": "CYP3A7-DsRed", "test": "Liver injury test using CYP3A4+/7R MAC-introduced mice, analysis by quantitative RT-PCR", "assay_type": "in vivo, mouse", "conditions": "adult mice; 5% carbon tetrachloride; Days 1, 2 and 3 versus non-administered (Day 0)", "procedure": "Using RNAs extracted from the livers of the CYP3A4+/7R MAC-introduced mice to which 5% carbon tetrachloride had been administered in Test Example 11 and non-administered (Day 0) mice, an increase in the expression of DsRed on Days 1, 2 and 3 after the administration was analyzed by quantitative RT-PCR (FIG. 19)."}, "[3]": {"tested_on": "gene expression control region of the human CYP3A4 gene (EGFP reporter)", "procedure": "(§1) Forty-eight hours later (corresponding to Day 14 of differentiation culture), the total area fluorescence intensities of EGFP and DsRed were analyzed under a fluorescence microscope (FIG. 16)."}, "[4]": {"tested_on": "gene expression control region of the human CYP3A7 gene (DsRed reporter)", "procedure": "as §1"}, "CYP3A7": {"tested_on": "CYP3A7", "test": "Expression of CYP3A7 upon cell damage, liver damage by a CYP-inducing drug in humanized CYP3A model mouse", "assay_type": "in vivo", "conditions": "versus corn oil administration control group, hepatocyte regeneration after liver damage", "text": "The expression of CYP3A7 during the injury of hepatocytes was examined by a method of liver regeneration after partial hepatectomy performed on 70% living liver, using a humanized CYP3A model mouse into which human CYP3A4 and CYP3A7 have been incorporated, a method of damaging the liver of the same mouse as described above by administration of a CYP-inducing drug, and a method of transplanting frozen human hepatocytes into the liver injury model mouse. In the method of liver regeneration after the partial hepatectomy, mice that were fed after 70% of the liver had been excised by ligating it with a cord were produced. Thereafter, the mice were successively subjected to dissection from Days 1 to 5 to collect the liver from each mouse, and gene expression was then examined. In the method of damaging the liver by administration of a CYP-inducing drug, the liver was excised from each mouse belonging to a PCN administration group and a corn oil administration control group, and gene expression was then examined. In the method of transplanting frozen human hepatocytes into the living mouse, a part of the humanized mouse liver was obtained from PhenixBio, and gene expression was then examined."}}, "note": "Like-named read-outs stand apart in the source and are kept apart here.", "data": [{"smiles": "ClC(Cl)(Cl)Cl", "note": "[carbon tetrachloride]", "values": [{"measurement": "fluorescence intensity of DsRed in the liver", "setting": "CYP3A7-DsRed [1]", "value": "increase"}, {"measurement": "expression of DsRed in the liver (quantitative RT-PCR)", "setting": "CYP3A7-DsRed [2]", "value": "increases"}]}, {"smiles": "CC(=O)[C@H]1[C@H](C#N)C[C@H]2[C@@H]3CC=C4C[C@@H](O)CC[C@]4(C)[C@H]3CC[C@@]21C", "note": "[PCN, pregnenolone 16α-carbonitrile]", "values": [{"measurement": "expression of EGFP (total area fluorescence intensity)", "setting": "[3]", "value": "non-inducibility"}, {"measurement": "fluorescence intensity of DsRed", "setting": "[4]; HepaRG clone C3, drug in 1% DMSO, 48 hours, DMSO control group = 1", "value": "increase"}, {"measurement": "expression of CYP3A7 in liver", "setting": "CYP3A7", "value": "transiently increased"}, {"measurement": "cellular damage to HepaRG cells", "setting": "HepaRG cells; HepaRG cells", "value": "high cellular damage"}]}, {"smiles": "Clc1ccccc1C(c1ccccc1)(c1ccccc1)n1ccnc1", "note": "[clotrimazole]", "values": [{"measurement": "expression of EGFP (total area fluorescence intensity)", "setting": "[3]", "value": "induced"}, {"measurement": "fluorescence intensity of DsRed", "setting": "[4]", "value": "increase"}, {"measurement": "cellular damage to HepaRG cells", "setting": "HepaRG cells", "value": "high cellular damage"}]}]}
